In assay [1] the target is T1, interaction between GMPPNP-bound recombinant K-Ras4B G12C mutant protein and cRAF RAS-binding domain (cRAF-RBD) (Homo sapiens, UniProt P01116, G12C).
T1 construct: His-tag (N)
Nature of the assay: Inhibitory activity on interaction between KRAS G12C and cRAF (Alpha technology). The procedure:
Interaction between recombinant K-Ras4B G12C mutant protein (amino acids 1-169, SEQ ID NO:2) and cRAF RAS-binding domain (cRAF-RBD, amino acids 50-132, Jena Biosciences GmbH) was measured using Alpha technology (PerkinElmer Inc.).
Recombinant KRAS G12C protein with an N-terminal His-tag was expressed in E. coli and purified by affinity chromatography. To prepare GTP-bound form and GDP-bound form of KRAS G12C protein, 50 μM KRAS G12C protein was incubated with 1 mM GMPPNP (Guanosine-5′-[(β,γ)-imido]triphosphate, Tetralithium salt) (Jena Bioscience GmbH) and 1 mM GDP, respectively, in a loading buffer (20 mM Tris-HCl (pH 7.5), 50 mM NaCl, 1 mM DTT and 2.5 mM EDTA) for 1 hour on ice. After the incubation, MgCl2 was added to a final concentration of 10 mM, followed by incubation at room temperature for 30 minutes. The mixture was allowed to pass through a NAP-5 column to remove free nucleotides and purified, and the resultant nucleotide-bound KRAS G12C protein was used for compound evaluation.
For the measurement of the inhibitory activity of compounds on interaction between KRAS G12C and cRAF-RBD, GMPPNP-bound KRAS G12C protein was incubated with various concentrations of compound in a reaction buffer (20 mM Tris-HCl (pH 7.5), 100 mM NaCl, 1 mM MgCl2, 1 mM TCEP, 0.1% Tween 20) at 25° C. for 1 hour. After the incubation, recombinant cRAF-RBD and Alpha detection reagents were added and incubated at room temperature for 1.5 hours for binding. Interaction of KRAS G12C and cRAF-RBD was monitored by measuring Alpha signal. Inhibition % was calculated using the signal from the reaction without test compound (DMSO control) as 0% inhibition and the signal from the reaction using GDP-bound KRAS G12C in place of GMPPNP-bound KRAS G12C as 100% inhibition. IC50 values were calculated from dose titration curve using curve fitting by XLfit software (IDBS).

The test system of the next assay is MIA PaCa-2 cells. Nature of the assay: Growth inhibition activity on KRAS-G12C mutant cell line (CellTiter-Glo 3D). Format: cell-based, human. As to conditions: MIA PaCa-2, 3-day culture with compound. As for the experimental part: MIA PaCa-2 cells (given by Sumitomo Dainippon Pharma Co., Ltd.), which are a KRAS-G12C mutant human pancreas cancer cell line, were suspended in a 10% fetal bovine serum-containing RPMI1640 medium (manufactured by Fujifilm Wako Pure Chemical Corporation). The cell suspension was seeded into each well of a 384-well U bottom microplate and cultured in an incubator containing 5% CO2 gas at 37° C. for 1 day. The compounds obtained in the “Preparation of Compounds” section were used as test compounds and were dissolved in DMSO, respectively, and each test compound was diluted with DMSO to give a concentration 500 times the final concentration. The resultant solution of the test compound in DMSO was diluted with the medium used for suspending cells and added to each well of the cell-culture plate to give a DMSO final concentration of 0.2%, followed by culture in an incubator containing 5% CO2 gas at 37° C. for another 3 days. The cell count after 3-day culture in the presence of the test compound was measured using CellTiter-Glo 3D Reagent (manufactured by Promega Corporation). All wells were added with CellTiter-Glo 3D Reagent and mixed for 10 minutes. 30 minutes after mixing, luminescence was measured by a plate reader. The growth inhibition rate was calculated from the following equation, and the concentration of the test compound at which 50% inhibition was achieved (IC50 (nM)) was determined.
[formula] • T: the emission intensity in a well into which a test compound was added. • C: the emission intensity in a well into which a test compound was not added.

Where [2] appears, read: GMPPNP-bound KRAS G12C incubated with compound 25° C. 1 hour, Table 2-1, read-out: IC50.
Where [3] appears, read: Homo sapiens, MIA PaCa-2, 72 h, Table 3-1.
Setting [4] is: IC50, GMPPNP-bound KRAS G12C incubated with compound 25° C. 1 hour, Table 2.
Where [5] appears, read: IC50, GMPPNP-bound KRAS G12C incubated with compound 25° C. 1 hour, Table 2-1.
Where [6] appears, read: GMPPNP-bound KRAS G12C incubated with compound 25° C. 1 hour, Table 2, read-out: IC50.

The term IC50 denotes the midpoint of a concentration-inhibition curve.

Where two headings read alike, the source gives them in different places. Bounds are passed on as bounds.

For `COc1cc(N2CCCC2=O)cc2c1-c1cccn3c(C(=O)c4cc(F)c(NC(=O)/C=C/CNC5(C)CC5)c(F)c4)cc(c13)CCO2` [Example 210], the results for the half-inhibitory concentration (IC50) (in assay [1] (setting [2]); in the assay with MIA PaCa-2 cells (setting [3])) were 0.0381 µM and 0.0603 µM, respectively.

Consider `CO[C@H]1CC[C@H](NC/C=C/C(=O)Nc2c(F)cc(C(=O)c3cn4c5c(cccc35)-c3c(C)cc5c(nc(C)n5C)c3OCCC4)cc2F)CC1` (single isomer, unassigned) [Example 15-2, (E)-N-(2,6-difluoro-4-(6,8,9-trimethyl-13,14-dihydro-8H,12H-imidazo[4″,5″:3′,4′]benzo[1′,2″:8,9][1,5]oxazonino[7,6,5-hi]indole-2-carbonyl)phenyl)-4-(((1r,4r)-4-methoxycyclohexyl)amino)but-2-enamide], for which the IC50 came out at 0.035 µM in assay [1] (setting [4]) and 0.027 µM in the assay on MIA PaCa-2 cells (Table 3).

`CO[C@H]1CC[C@H](NC/C=C/C(=O)Nc2c(F)cc(C(=O)c3cn4c5c(cccc35)-c3c(Cl)cccc3OCC4)cc2F)CC1` (single isomer, unassigned) [Example 1-2]: the IC50 in assay [1] (setting [4]) worked out at 0.18 µM; in the assay with MIA PaCa-2 cells (Table 3), 0.16 µM.

Turning to `Cc1nc2c3c(c(C(F)(F)F)cc2n1C)-c1cccn2c(C(=O)c4cc(F)c(NC(=O)C=CCNC5CCOC5)c(F)c4)nc(c12)CCN3C` [Example 148, (S,E)-N-(2,6-difluoro-4-(8,9,11-trimethyl-6-(trifluoromethyl)-8,11,12,13-tetrahydro-1,2a,8,10,11-pentaazacycloocta[1,2,3-cd:5,4-e′]diindene-2-carbonyl)phenyl)-4-((tetrahydrofuran-3-yl)amino)but-2-enamide], the 50% inhibitory concentration (IC50) turned out to be 0.0232 µM in assay [1] (setting [2]) and 0.0191 µM in the assay on MIA PaCa-2 cells (setting [3]).

Take `COc1cc2c(nc(C)n2C)c2c1-c1cccn3c(C(=O)c4cc(F)c(NC(=O)/C=C/CNC(C)(C)C)c(F)c4)cc(c13)CCN2C` [Example 79, (E)-4-(tert-butylamino)-N-(2,6-difluoro-4-(7-methoxy-9,10,12-trimeth-yl-9,12,13,14-tetrahydro-imidazo[4″,5″:5′,6′]benzo-[1′,2′:2,3]azocino[4,5,6-hi]indolizine-2-carbonyl)-phenyl)but-2-enamide]: the IC50 in assay [1] (setting [2]) is 0.0328 µM; in the assay on MIA PaCa-2 cells (setting [3]), 0.0106 µM.

On to `COCCn1c(COC)[n+]([O-])c2c3c(c(OC)cc21)-c1cccn2c(C(=O)c4cc(F)c(NC(=O)/C=C/CNC5(C)CC5)c(F)c4)cc(c12)CCN3C` [Example 243, (E)-2-(3,5-difluoro-4-(4-((1-methylcyclopropyl)-amino)but-2-enamido)-benzoyl)-7-methoxy-9-(2-methoxyethyl)-10-(methoxymethyl)-12-methyl-9,12,13,14-tetra-hydroimidazo[4″,5″:5′,6′]-benzo[1′,2′:2,3]azocino-[4,5,6-hi]indolizine 11-oxide], for which the IC50 in assay [1] (setting [2]) is 0.0832 µM; with MIA PaCa-2 cells (setting [3]) it was 0.0918 µM.

On to `Cc1nnc2c3c(c(C(F)(F)F)cn12)-c1cccn2c(C(=O)c4cc(F)c(NC(=O)/C=C/CNC5(C)COC5)c(F)c4)cc(c12)CCN3C` (single isomer, unassigned) [Example 216, (E)-N-(4-(10,13-dimethyl-7-(trifluoromethyl)-14,15-dihydro-13H-[1,2,4]-triazolo[4″,3″:1′,2′]pyrido-[3′,4′:2,3]azocino[4,5,6-hi]indolizine-2-carbonyl)-2,6-difluorophenyl)-4-((3-methyloxetan-3-yl)-amino)but-2-enamide], for which the 50% inhibitory concentration (IC50) in assay [1] (setting [2]) was determined as 0.0576 µM; with MIA PaCa-2 cells (setting [3]), 0.0233 µM.

In the case of `CN1CCc2cc(C(=O)c3cc(F)c(NC(=O)/C=C/CN[C@@H]4CCOC4)c(F)c3)n3cccc(c23)-c2c(C(F)(F)F)cc3c(ncn3C)c21` (single isomer, unassigned) [Example 89], the IC50 in assay [1] (setting [2]) stood at 0.016 µM; in the assay with MIA PaCa-2 cells (setting [3]) it was 0.00437 µM.

Take `CC(=O)CC(C)(C)NC/C=C/C(=O)Nc1c(F)cc(C(=O)c2cn3c4c(cccc24)-c2c(C)cc4c(nc(C)n4C)c2N(C)CC3)cc1F` [Example 108]: the values for the IC50 (in assay [1] (setting [5]); in the assay with MIA PaCa-2 cells (setting [3])) were 0.0542 µM and 0.332 µM, respectively.

On to `Cc1nc2c3c(c(C(F)(F)F)cc2n1C)-c1cccn2c(C(=O)c4cc(F)c(NC(=O)/C=C/CN(C)C)c(F)c4)cc(c12)CCO3` (single isomer, unassigned) [Example 38-1], for which the results for the IC50 (in assay [1] (setting [6]); in the assay on MIA PaCa-2 cells (Table 3)) were over 6.7 µM and 8.3 µM, respectively.

Consider `COCc1nc2c3c(c(C(F)(F)F)cc2n1C)-c1cccn2c(C(=O)c4cc(F)c(NC(=O)/C=C/CN[C@H]5CCOC5)c(F)c4)cc(c12)CCN3C` (single isomer, unassigned) [Example 98], for which the concentration for half-maximal inhibition (IC50) in assay [1] (setting [2]) worked out at 0.0111 µM; in the assay with MIA PaCa-2 cells (setting [3]) it was 0.00394 µM.

`Cc1cc2c(ncn2C)c2c1-c1cccn3c(C(=O)c4cc(F)c(NC(=O)/C=C/CNC56CCC(CC5)OC6)c(F)c4)cc(c13)CCN2C` [Example 134]: the results for the half-inhibitory concentration (IC50) (in assay [1] (setting [2]); in the assay with MIA PaCa-2 cells (setting [3])) were 0.031 µM and 0.244 µM, respectively.

Take `Cc1nc2c3c(c(C(F)(F)F)cc2n1C)-c1cccc2c(C(=O)c4cc(F)c(NC(=O)/C=C/CNC5(C)COC5)c(F)c4)cn(c12)CC(=O)N3C` [Example 77]: the IC50 in assay [1] (setting [5]) amounted to 0.0804 µM; in the assay on MIA PaCa-2 cells (setting [3]), 0.054 µM.

For “(E)-N-(2,6-difluoro-4-((S)-6,8,9,12-tetramethyl-12,13-dihydro-8H-imidazo[4″,5″:3′,4′]benzo[1′,2′:7,8][1,4]oxazocino[6,5,4-hi]indole-2-carbonyl)pheny 1)-4-(((1,4r)-4-methoxycyclohexyl)amino)but-2-enamide [Example 20]”, the half-maximal inhibitory concentration (IC50) in assay [1] (setting [6]) stood at 0.024 µM; in the assay with MIA PaCa-2 cells (Table 3), 0.049 µM.

As to `COc1cc2c(nc(C)n2C)c2c1-c1cccn3c(C(=O)c4cc(F)c(NC(=O)/C=C/CNC5(C)CC5)c(F)c4)cc(c13)CCO2` [Example 194], the IC50 in assay [1] (setting [2]) is 0.0103 µM; in the assay on MIA PaCa-2 cells (setting [3]) it was 0.00638 µM.

Turning to `CO[C@H]1CC[C@H](NC/C=C/C(=O)Nc2c(F)cc(C(=O)c3cn4c5c(cccc35)-c3c(C)cc5c(nc(C)n5C)c3O[C@H](C)C4)cc2F)CC1` [Example 19, (E)-N-(2,6-difluoro-4-((R)-6,8,9,12-tetramethy 1-12,13-dihydro-8H-imidazo[4″,5″:3′,4′]benzo[1′,2′:7,8][1,4]oxazocino[6,5,4-hi]indole-2-carbonyl)phenyl)-4-(((1,4r)-4-methoxycyclohexyl)amino)but-2-enamide], the IC50 in assay [1] (setting [4]) was over 6.7 µM; with MIA PaCa-2 cells (Homo sapiens, MIA PaCa-2, 72 h, Table 3), 3.3 µM.

For the compound `C=C1Cc2cc(C(=O)c3cc(F)c(NC(=O)/C=C/CN[C@H]4CC[C@H](OC)CC4)c(F)c3)n3cccc(c23)-c2c(C)cc3c(nc(C)n3C)c21` [Example 48, (E)-N-(2,6-difluoro-4-(2,3,5-trimethyl-13-methylene-12,13-dihydro-3H-imidazo[4″,5″:5′,6′]benzo[1′,2′:6,7]cyclohepta[1,2,3-hi]indolizine-10-carbonyl)phenyl)-4-(((1r,4r)-4-methoxycyclohexyl)amino)but-2-enamide], the 50% inhibitory concentration (IC50) in assay [1] (setting [6]) turned out to be 0.093 µM.

Consider `Cc1nc2c3c(c(C(F)(F)F)cc2n1C)-c1cccn2c(C(=O)c4cc(F)c(NC(=O)/C=C/CNC5(CF)COC5)c(F)c4)cc(c12)CCO3` [Example 50, (E)-N-(4-(9,10-dimethyl-7-(trifluoromethyl)-13,14-dihydro-9H-imidazo[4″,5″:5′,6′]benzo[1′,2′:2,3]oxocino[4,5,6-hi]indolizine-2-carbonyl)-2,6-difluorophenyl)-4-((3-(fluoromethyl)oxetan-3-yl)amino)but-2-enamide], for which the half-inhibitory concentration (IC50) in assay [1] (setting [6]) is 0.78 µM.

The record behind these values is patent US20240262842A1, “SMALL MOLECULE INHIBITORS OF KRAS G12C MUTANT” (Merck Sharp & Dohme LLC, priority 2021, published 2024).
